Patent US20250129091A1, “THIENOPYRROLOTRIAZINE COMPOUNDS, THEIR PREPARATION AND THEIR THERAPEUTIC USE” (Sanofi, priority 2022, published 2025)
Structures can show the parent of a compound that is named as a salt.

The compounds below were run on NLRP3 inflammasome (assay: IL-1β secretion assay (LPS-primed, nigericin-activated THP-1 cells, MSD readout)). Conditions: Homo sapiens, THP-1, LPS-primed, read-out: IL1b IC50.
Assay type: cell-based
Method: Monocytic THP-1 cells (DSMZ) were maintained in RPMI media (RPMI 1640 Medium (1×) +10% FBS, Eurobio CVFSVFOO—OU). Cells were then plated at 16,000 cells per well in 96-well round bottom cell culture plates (TPP, ref 92097) and maintained with RPMI and 0.1% Bovine Serum Albumin solution. Activation of the NLRP3 inflammasome requires both an NF-kB-dependent priming step and the addition of a NLRP3 activator. The priming step was induced by LPS (10 ng/mL, Sigma, ref:L4391) for 3 h at 37° C., then compound, in a 1:3.10 serial dilution series in DMSO 1:100, and the activator nigericin (Sigma Aldrich, ref: SML1779) 10 μM (final concentration) were added to the cells and co-incubated for 2 h. 50 μL supernatant was removed, and IL-1β levels were monitored using an MSD assay (Electro Chemical Luminescence Immunoassay (ECLI) according to manufacturers' instructions.
IC50 values were calculated from the plot of percentage of inhibition versus the inhibitor concentration by a logistics fit according to: y=A2+(A1−A2)/(1+(x/IC50)^p) where y is the %-inhibition at the inhibitor concentration, x. A1 is the lowest inhibition value, i.e., 0%, and A2 the maximum inhibition value, i.e., 100%. The exponent, p, is the Hill coefficient. The curve fitting was conducted with an internally developed software.
In the case of `CC(C)c1nn(CC(=O)NC2CC3(C2)CN(C)C3)c(=O)c2cc3ccsc3n12` [Example 83, N-(2-methyl-2-azaspiro[3.3]heptan-6-yl)-2-(8-isopropyl-5-oxothieno[3′,2′:4,5]pyrrolo[1,2-d][1,2,4]triazin-6(5H)-yl)acetamide], the IC50 is reported as 1880 nM.
For `CC(C)c1nn(CC(=O)N[C@@H]2CCCN(C3CCCC3)C2)c(=O)c2cc3ccsc3n12` [Example 49, N-[(3R)-1-cyclopentyl-3-piperidyl]-2-(12-isopropyl-9-oxo-3-thia-1,10,11-triazatricyclo [6.4.0.02,6]dodeca-2(6),4,7,11-tetraen-10-yl)acetamide], the IC50 was 27 nM.
For `COc1cc(NC(=O)Cn2nc(C(C)C)n3c(cc4ccsc43)c2=O)ccn1` [Example 65, 2-(8-isopropyl-5-oxothieno[3′,2′:4,5]pyrrolo[1,2-d][1,2,4]triazin-6(5H)-yl)-N-(2-methoxypyridin-4-yl)acetamide], the IC50 was 3800 nM.
Compound `CC(C)c1nn(CC(=O)Nc2cncs2)c(=O)c2cc3cc(Cl)sc3n12` [Example 7, 2-(2-chloro-8-isopropyl-5-oxothieno[3′,2′:4,5]pyrrolo[1,2-d][1,2,4]triazin-6(5H)-yl)-N-(thiazol-5-yl)acetamide] has an IC50 of 1790 nM.
With `CC(C)c1nn(CC(=O)Nc2ccnn2C)c(=O)c2cc3ccsc3n12` [Example 53, 2-(12-isopropyl-9-oxo-3-thia-1,10,11-triazatricyclo[6.4.0.02,6]dodeca-2(6),4,7,11-tetraen-10-yl)-N-(2-methylpyrazol-3-yl)acetamide] the IC50 was 1070 nM.
In the case of `CC(C)c1nn(CC(=O)Nc2ccc3scnc3c2)c(=O)c2cc3ccsc3n12` [Example 15, N-(benzo[d]thiazol-5-yl)-2-(8-isopropyl-5-oxothieno[3′,2′:4,5]pyrrolo[1,2-d][1,2,4]triazin-6(5H)-yl)acetamide], the IC50 is reported as 2740 nM.
With `CC(C)c1nn(CC(=O)NC2CCN(C3CC3)C2)c(=O)c2cc3ccsc3n12` (centres unmarked) [Example 86, N-(1-cyclopropylpyrrolidin-3-yl)-2-(12-isopropyl-9-oxo-3-thia-1,10,11-triazatricyclo [6.4.0.02,6]dodeca-2(6),4,7,11-tetraen-10-yl)acetamide] the IC50 was greater than 10000 nM.
`CC(C)c1nn(CC(=O)N[C@@H]2CCCN(C[C@@H](C)O)C2)c(=O)c2cc3ccsc3n12` [Example 78, N-[(3R)-1-[(2R)-2-hydroxypropyl]piperidin-3-yl]-2-(8-isopropyl-5-oxothieno[3′,2′:4,5]pyrrolo [1,2-d][1,2,4]triazin-6(5H)-yl)acetamide] showed an IC50 of 326 nM.
In the case of `CC(C)c1nn(CC(=O)NC2CCC(=O)N(C)C2)c(=O)c2cc3ccsc3n12` (centres unmarked) [Example 47, 2-(8-isopropyl-5-oxothieno[3′,2′:4,5]pyrrolo[1,2-d][1,2,4]triazin-6(5H)-yl)-N-(1-methyl-6-oxopiperidin-3-yl)acetamide], the IC50 is reported as 1030 nM.
In the case of `CC(C)c1nn(CC(=O)NC2CCCN(CC(F)(F)F)C2)c(=O)c2cc3ccsc3n12` (centres unmarked) [Example 38, 2-(8-isopropyl-5-oxothieno[3′,2′:4,5]pyrrolo[1,2-d][1,2,4]triazin-6(5H)-yl)-N-(1-(2,2,2-trifluoroethyl)piperidin-3-yl)acetamide 2,2,2-trifluoroacetate], the IC50 is reported as 1300 nM.
With `CC(C)c1nn(CC(=O)Nc2ccn(C)n2)c(=O)c2cc3ccsc3n12` [Example 54, 2-(12-isopropyl-9-oxo-3-thia-1,10,11-triazatricyclo[6.4.0.02,6]dodeca-2(6),4,7,11-tetraen-10-yl)-N-(1-methylpyrazol-3-yl)acetamide] the IC50 was 1710 nM.
`COCc1nn(CC(=O)N[C@@H]2CCCN(C3CC3)C2)c(=O)c2cc3cc(Cl)sc3n12` [Example 30, (R)-2-(2-chloro-8-(methoxymethyl)-5-oxothieno[3′,2′:4,5]pyrrolo[1,2-d][1,2,4]triazin-6(5H)-yl)-N-(1-cyclopropylpiperidin-3-yl)acetamide formate] gave an IC50 of 1200 nM.
In the case of `CC(C)c1nn(CC(=O)N[C@@H]2CCN(C)C2)c(=O)c2cc3ccsc3n12` [Example 76, N-[(3R)-1-methylpyrrolidin-3-yl]-2-(8-isopropyl-5-oxothieno[3′,2′:4,5]pyrrolo[1,2-d][1,2,4]triazin-6(5H)-yl)acetamide], the IC50 is reported as 978 nM.
In the case of `CC(C)c1nn(C(C)C(=O)N[C@@H]2CCCN(C3CC3)C2)c(=O)c2cc3ccsc3n12` (stereo partly drawn) [Example 26, N—((R)-1-cyclopropylpiperidin-3-yl)-2-(8-isopropyl-5-oxothieno[3′,2′:4,5]pyrrolo[1,2-d][1,2,4]triazin-6(5H)-yl)propanamide formate], the IC50 is reported as 1990 nM.
Compound `CC(=O)NCC12CC(NC(=O)Cn3nc(C(C)C)n4c(cc5ccsc54)c3=O)(C1)C2` [Example 74, N-[3-(acetamidomethyl)bicyclo[1.1.1]pentan-1-yl]-2-(8-isopropyl-5-oxothieno[3′,2′:4,5]pyrrolo[1,2-d][1,2,4]triazin-6(5H)-yl)acetamide] has an IC50 of 344 nM.
Work on `COCC(C)N1CCC[C@@H](NC(=O)Cn2nc(C(C)C)n3c(cc4ccsc43)c2=O)C1` (stereo partly drawn) [Example 64, 2-(8-isopropyl-5-oxothieno[3′,2′:4,5]pyrrolo[1,2-d][1,2,4]triazin-6(5H)-yl)-N-((3R)-1-(1-methoxypropan-2-yl)piperidin-3-yl)acetamide] yielded an IC50 of 109 nM.
With `CC(C)c1nn(CC(=O)Nc2ccc3ncsc3c2)c(=O)c2cc3ccsc3n12` [Example 12, N-(benzo[d]thiazol-6-yl)-2-(8-isopropyl-5-oxothieno[3′,2′:4,5]pyrrolo[1,2-d][1,2,4]triazin-6(5H)-yl)acetamide] the IC50 was 540 nM.
`CC(C)c1nn(CC(=O)N[C@@H]2CCCN(C3COC3)C2)c(=O)c2cc3ccsc3n12` [Example 40, (R)-2-(8-isopropyl-5-oxothieno[3′,2′:4,5]pyrrolo[1,2-d][1,2,4]triazin-6(5H)-yl)-N-(1-(oxetan-3-yl)piperidin-3-yl)acetamide] was tested, and the IC50 was 259 nM.
For `CC(C)c1nn(CC(=O)Nc2ccncc2)c(=O)c2cc3ccsc3n12` [Example 67, 2-(12-isopropyl-9-oxo-3-thia-1,10,11-triazatricyclo[6.4.0.02,6]dodeca-2(6),4,7,11-tetraen-10-yl)-N-(4-pyridyl)acetamide], the IC50 was 446 nM.
Work on `COCc1nn(CC(=O)N[C@@H]2CCCN(C3CCC3)C2)c(=O)c2cc3cc(Cl)sc3n12` [Example 29, (R)-2-(2-chloro-8-(methoxymethyl)-5-oxothieno[3′,2′:4,5]pyrrolo[1,2-d][1,2,4]triazin-6(5H)-yl)-N-(1-cyclobutylpiperidin-3-yl)acetamide formate] yielded an IC50 of 1140 nM.
`CC(C)c1nn(C(C)C(=O)N[C@@H]2CCCN(C3CCC3)C2)c(=O)c2cc3ccsc3n12` (stereo partly drawn) [Example 25, N—((R)-1-cyclobutylpiperidin-3-yl)-2-(8-isopropyl-5-oxothieno[3′,2′:4,5]pyrrolo[1,2-d][1,2,4]triazin-6(5H)-yl)propanamide formate] gave an IC50 of 768 nM.
In the case of `CC(C)c1nn(CC(=O)N[C@@H]2CCCN(CCC#N)C2)c(=O)c2cc3ccsc3n12` [Example 77, N-[(3R)-1-(2-cyanoethyl)piperidin-3-yl]-2-(8-isopropyl-5-oxothieno[3′,2′:4,5]pyrrolo[1,2-d][1,2,4]triazin-6(5H)-yl)acetamide], the IC50 is reported as 78 nM.
`CC(C)(O)c1nn(CC(=O)N[C@@H]2CCCN(C3CC3)C2)c(=O)c2cc3ccsc3n12` [Example 52, (R)—N-(1-cyclopropylpiperidin-3-yl)-2-(8-(2-hydroxypropan-2-yl)-5-oxothieno[3′,2′:4,5]pyrrolo[1,2-d][1,2,4]triazin-6(5H)-yl)acetamide] showed an IC50 of 82 nM.
`Cc1cc2cc3c(=O)n(CC(=O)N[C@@H]4CCCN(C)C4)nc(C(C)C)n3c2s1` [Example 9, (R)-2-(8-isopropyl-2-methyl-5-oxothieno[3′,2′:4,5]pyrrolo[1,2-d][1,2,4]triazin-6(5H)-yl)-N-(1-methylpiperidin-3-yl)acetamide 2,2,2-trifluoroacetate] was tested, and the IC50 was 9560 nM.
Compound `CC(C)c1nn(CC(=O)N[C@@H]2CCCN(C(C)(C)CO)C2)c(=O)c2cc3ccsc3n12` [Example 79, N-[(3R)-1-(1-hydroxy-2-methylpropan-2-yl)piperidin-3-yl]-2-(8-isopropyl-5-oxothieno [3′,2′:4,5]pyrrolo[1,2-d][1,2,4]triazin-6(5H)-yl)acetamide] has an IC50 of 29 nM.
Work on `CC(C)c1nn(CC(=O)NC2CCNC(=O)C2)c(=O)c2cc3ccsc3n12` (centres unmarked) [Example 85, 2-(12-isopropyl-9-oxo-3-thia-1,10,11-triazatricyclo[6.4.0.02,6]dodeca-2(6),4,7,11-tetraen-10-yl)-N-(2-oxo-4-piperidyl)acetamide] yielded an IC50 greater than 10000 nM.
`CC(C)c1nn(CC(=O)N[C@@H]2CCCCN(C)C2)c(=O)c2cc3ccsc3n12` [Example 62, 2-(12-isopropyl-9-oxo-3-thia-1,10,11-triazatricyclo[6.4.0.02,6]dodeca-2(6),4,7,11-tetraen-10-yl)-N-[(3R)-1-methylazepan-3-yl]acetamide] showed an IC50 of 850 nM.

Same assay, conditions: LPS-primed, read-out: IL1b IC50
In the case of `CC(O)c1nn(CC(=O)N[C@@H]2CCCN(C3CC3)C2)c(=O)c2cc3ccsc3n12` (single isomer, unassigned) [Example 44], the IC50 is reported as 278 nM.
Work on `CC(O)c1nn(CC(=O)N[C@@H]2CCCN(C3CCC3)C2)c(=O)c2cc3ccsc3n12` (single isomer, unassigned) [Example 50] yielded an IC50 of 650 nM.
